pIC50: −log10 of the molar value.
What was measured:
[1] = molecular target: T1, Histone-lysine N-methyltransferase EHMT2 (Homo sapiens, UniProt Q96KQ7); experiment: Inhibition of G9a (unknown origin)
T1 sequence (Q96KQ7 whole entry): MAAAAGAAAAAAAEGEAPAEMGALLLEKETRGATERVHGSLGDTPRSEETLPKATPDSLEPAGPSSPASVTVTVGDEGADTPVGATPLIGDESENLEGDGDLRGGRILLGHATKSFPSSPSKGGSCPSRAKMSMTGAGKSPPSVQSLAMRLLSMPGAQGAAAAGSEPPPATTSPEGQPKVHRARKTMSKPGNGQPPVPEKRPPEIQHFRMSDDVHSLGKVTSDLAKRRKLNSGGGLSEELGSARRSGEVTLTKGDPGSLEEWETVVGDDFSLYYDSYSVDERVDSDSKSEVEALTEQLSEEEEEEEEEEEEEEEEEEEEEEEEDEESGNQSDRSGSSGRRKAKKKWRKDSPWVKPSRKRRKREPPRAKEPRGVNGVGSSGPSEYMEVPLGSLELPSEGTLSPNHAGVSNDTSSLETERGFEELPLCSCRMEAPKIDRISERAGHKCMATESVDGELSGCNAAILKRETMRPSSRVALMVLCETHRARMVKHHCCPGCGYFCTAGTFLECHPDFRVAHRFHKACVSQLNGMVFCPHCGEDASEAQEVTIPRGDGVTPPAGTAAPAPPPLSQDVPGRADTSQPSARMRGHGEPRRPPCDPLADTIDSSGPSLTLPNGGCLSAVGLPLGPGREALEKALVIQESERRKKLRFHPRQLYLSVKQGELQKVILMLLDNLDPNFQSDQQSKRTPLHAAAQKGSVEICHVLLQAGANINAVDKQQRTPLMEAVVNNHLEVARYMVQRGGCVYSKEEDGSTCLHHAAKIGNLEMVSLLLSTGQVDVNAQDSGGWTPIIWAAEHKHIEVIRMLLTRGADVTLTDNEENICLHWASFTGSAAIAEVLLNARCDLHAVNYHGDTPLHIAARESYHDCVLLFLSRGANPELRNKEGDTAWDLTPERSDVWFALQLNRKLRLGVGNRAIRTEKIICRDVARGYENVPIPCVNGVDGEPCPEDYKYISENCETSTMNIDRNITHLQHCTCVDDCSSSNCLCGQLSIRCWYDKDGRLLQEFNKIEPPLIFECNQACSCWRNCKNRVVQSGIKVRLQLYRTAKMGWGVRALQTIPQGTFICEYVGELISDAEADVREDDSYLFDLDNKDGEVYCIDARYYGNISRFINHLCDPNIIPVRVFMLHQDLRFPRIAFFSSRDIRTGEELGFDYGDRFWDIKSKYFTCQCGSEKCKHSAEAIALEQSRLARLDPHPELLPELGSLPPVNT

[2] = molecular target: T1, Histone-lysine N-methyltransferase EHMT2; experiment: Inhibition of human G9a using biotinylated-H3K9 peptide as substrate after 1 hr in presence of SAM by TR-FRET assay
MV4-11 = experiment: Antitumor activity against human MV4-11 cells xenografted in SCID-beige mouse assessed as tumor growth inhibition at 30 mg/kg/day via osmotic pump for 2 weeks relative to control; type: functional; conditions: MV4-11, 336 h, read-out: TGI

| Compound | pIC50 [1] | pIC50 [2] | inhibition in vivo at 30 mg/kg/day (MV4-11) |
| --- | --- | --- | --- |
| Cc1cc(Nc2ccc(NC(=O)c3ccc(Nc4ccnc5ccccc45)cc3)cc2)nc(N)n1 | 4.23 | < 5.00 |  |
| COc1cc2c(cc1OCCCN1CCCC1)N=C(N)C21CCC1 |  |  | 45% |
